Test results: US4237045A, “N-substituted cyclopeptide derivatives and preparation thereof” (American Home Products Corporation, priority 1978, dated 1980)

How the values were obtained:
Serratia marcescens = assay: serial broth dilution test, growth inhibition; type: cell-based; conditions: nutrient broth, incubated at 37° C. for 2 days, examined for presence of growth
Method: (§1) Grove and W. A. Randall in "Assay Methods of Antibiotics", Med. Encycl. Inc., New York, 1955.
(§2) For example, by employing a test like the serial broth dilution, see Grove and Randall, cited above, in which dilutions of the compounds of this invention in nutrient broth are inoculated with the microorganisms or fungi, described above, incubated at 37° C. for 2 days, respectively, and examined for the presence of growth, it may be shown that isomers L and M of cyclo-[N-[1-(1-methylethyl)-2-cyclohexylamino-2-oxo-ethyl]-alanyl-phenylalanyl-valylglycyl-leucyl-methionyl] (described in Example 2) are able to inhibit growth totally in this system of Klebsiella pneumoniae and Serratia marcescens at a concentration of 100/mcg/ml.

Klebsiella pneumoniae = assay: serial broth dilution test, growth inhibition; type: cell-based; conditions: nutrient broth, incubated at 37° C. for 2 days, examined for presence of growth
Method: as §1, §2

In the case of `CSCC[C@@H]1NC(=O)[C@H](CC(C)C)NC(=O)CNC(=O)[C@H](C(C)C)NC(=O)[C@H](Cc2ccccc2)NC(=O)[C@H](C)N(C(C(=O)NC2CCCCC2)C(C)C)C1=O` (stereo partly drawn) [isomer L, Cyclo[N-[1-(1-methylethyl)-2-cyclohexylamino-2-oxo-ethyl]-alanyl-phenylalanyl-valyl-glycyl-leucyl-methionyl]], the “concentration able to inhibit growth totally” value (Serratia marcescens) is reported as 100 µg/mL and the “concentration able to inhibit growth totally” value (Klebsiella pneumoniae) is reported as 100 µg/mL.
